Results published in ChEMBL document CHEMBL1201862, “PubChem BioAssay data set” (2004).
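Grown in 96-well plates, cells were treated for 48 hours with each compound at five concentrations. Insufficient inhibition: endpoint recorded as highest concentration tested. GI50 marks 50% less growth.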 The source made the active and inactive calls. Cut-off read from the data, not from the text of the source: active = GI50 up to about 1.1 µM and inactive = higher.

Key:
Assay in all cases: DTP human tumour cell line panel, 48 h
A498 = test system: A498
UO-31 = test system: UO-31
NCI-H23 = test system: NCI-H23
SF-268 = test system: SF-268
UACC-62 = test system: UACC-62
HL-60 = test system: HL-60
SF-539 = test system: SF-539
SK-MEL-5 = test system: SK-MEL-5
K562 = test system: K562
MOLT-4 = test system: MOLT-4
COLO 205 = test system: COLO 205
UACC-257 = test system: UACC-257
HOP-62 = test system: HOP-62
CCRF-CEM = test system: CCRF-CEM
ACHN = test system: ACHN
KM12 = test system: KM12
SN12C = test system: SN12C
OVCAR-3 = test system: OVCAR-3
NCI-H522 = test system: NCI-H522
RXF 393 = test system: RXF 393

Measured: GI50

O=C(/C=C/c1ccsc1)c1ccc(Cl)cc1
inactive: A498 45 µM | UO-31 31.1 µM | NCI-H23 35.3 µM | SF-268 79.4 µM | UACC-62 41.6 µM | HL-60 19.1 µM | SF-539 76.7 µM | SK-MEL-5 > 100 µM | K562 20.6 µM | MOLT-4 19.2 µM | COLO 205 > 100 µM | UACC-257 > 100 µM | HOP-62 > 100 µM | CCRF-CEM 21.9 µM | ACHN > 100 µM | KM12 35.3 µM | SN12C 43.4 µM

N#Cc1c(N2CCC(O)C2)c2ccccc2n2c1nc1ccccc12 (stereo not drawn)
inactive: OVCAR-3 > 100 µM | NCI-H522 47.5 µM | A498 31.3 µM | UO-31 > 100 µM | NCI-H23 67.6 µM | SF-268 43.7 µM | UACC-62 > 100 µM | HL-60 > 100 µM | SF-539 54.8 µM | SK-MEL-5 > 100 µM | MOLT-4 > 100 µM | COLO 205 > 100 µM | UACC-257 > 100 µM | HOP-62 18.6 µM | CCRF-CEM > 100 µM | ACHN 18.2 µM | KM12 > 100 µM | SN12C 72.4 µM

Nc1nc(N)c2ncn(CC3CCC(CO)C3)c2n1 (stereo not drawn)
inactive: OVCAR-3 > 100 µM | A498 > 100 µM | UO-31 > 100 µM | SF-268 > 100 µM | UACC-62 > 100 µM | SF-539 > 100 µM | SK-MEL-5 > 100 µM | K562 > 100 µM | MOLT-4 > 100 µM | COLO 205 > 100 µM | RXF 393 > 100 µM | UACC-257 > 100 µM | HOP-62 > 100 µM | CCRF-CEM > 100 µM | ACHN > 100 µM | KM12 > 100 µM | SN12C > 100 µM

CC1=NC(=Cc2ccc(O)cc2)C(=O)N1n1c(-c2ccccc2)nc2ccccc2c1=O
inactive: NCI-H522 > 100 µM | A498 > 100 µM | UO-31 > 100 µM | NCI-H23 > 100 µM | SF-268 > 100 µM | UACC-62 > 100 µM | HL-60 > 100 µM | SF-539 > 100 µM | SK-MEL-5 > 100 µM | K562 > 100 µM | MOLT-4 > 100 µM | COLO 205 > 100 µM | UACC-257 > 100 µM | HOP-62 > 100 µM | CCRF-CEM > 100 µM | ACHN > 100 µM | KM12 > 100 µM | SN12C > 100 µM

CC(=O)OCCOCNC(=S)N/N=C(\C)c1ccco1
inactive: OVCAR-3 > 100 µM | NCI-H522 > 100 µM | A498 > 100 µM | UO-31 > 100 µM | NCI-H23 > 100 µM | SF-268 > 100 µM | UACC-62 > 100 µM | SF-539 > 100 µM | SK-MEL-5 > 100 µM | K562 > 100 µM | COLO 205 > 100 µM | RXF 393 > 100 µM | UACC-257 > 100 µM | HOP-62 > 100 µM | CCRF-CEM > 100 µM | ACHN > 100 µM | KM12 > 100 µM | SN12C > 100 µM

COC(=O)c1nc(C(=O)OC)c2c([nH]c3ccccc32)c1C(=O)OC
inactive: OVCAR-3 > 100 µM | NCI-H522 > 10 µM | A498 > 100 µM | UO-31 21.3 µM | NCI-H23 > 100 µM | UACC-62 85.1 µM | SF-539 > 100 µM | SK-MEL-5 9.79 µM | MOLT-4 82.6 µM | COLO 205 > 100 µM | RXF 393 31.8 µM | UACC-257 > 100 µM | HOP-62 > 100 µM | CCRF-CEM 71.1 µM | KM12 > 100 µM | SN12C > 100 µM

O=C1C2=C(c3ccccc31)C(c1ccc(Cl)cc1)N1C(=O)CCSC1=N2 (stereo not drawn)
inactive: OVCAR-3 84.3 µM | NCI-H522 45.5 µM | A498 > 100 µM | UO-31 42.9 µM | NCI-H23 76.7 µM | SF-268 > 100 µM | UACC-62 54.3 µM | HL-60 34.8 µM | SF-539 > 100 µM | SK-MEL-5 47.9 µM | K562 81.1 µM | MOLT-4 41.8 µM | COLO 205 > 100 µM | UACC-257 > 100 µM | HOP-62 > 100 µM | CCRF-CEM 51.1 µM | ACHN > 100 µM | KM12 99.5 µM | SN12C 44.6 µM

COC(=O)[C@@]1(C)C(=O)CC[C@@H]1C=O
inactive: OVCAR-3 > 100 µM | NCI-H522 > 100 µM | A498 > 100 µM | UO-31 > 100 µM | NCI-H23 > 100 µM | SF-268 > 100 µM | UACC-62 > 100 µM | HL-60 60.5 µM | SF-539 > 100 µM | SK-MEL-5 > 100 µM | K562 > 100 µM | MOLT-4 > 100 µM | COLO 205 > 100 µM | UACC-257 > 100 µM | HOP-62 > 100 µM | CCRF-CEM > 100 µM | ACHN > 100 µM | KM12 > 100 µM | SN12C > 100 µM

CC(C)(C)OC(=O)N1C/C=C\C(=O)C2(OCCO2)c2ccccc21
inactive: OVCAR-3 15.7 µM | NCI-H522 24 µM | A498 > 100 µM | UO-31 17.7 µM | NCI-H23 36.1 µM | SF-268 34 µM | SF-539 22.1 µM | SK-MEL-5 16.5 µM | K562 22 µM | MOLT-4 19.5 µM | COLO 205 17.7 µM | RXF 393 21.2 µM | UACC-257 20.8 µM | HOP-62 48.9 µM | CCRF-CEM 25.4 µM | ACHN 34.2 µM | KM12 31.6 µM | SN12C 26.5 µM

Cc1ccc(/N=N/c2cc(=O)[nH]c(=O)[nH]2)cc1C
inactive: OVCAR-3 1.94 µM | A498 18.4 µM | UO-31 17.9 µM | SF-268 19.8 µM | HL-60 3.01 µM | SF-539 11.2 µM | SK-MEL-5 15.8 µM | K562 2.79 µM | MOLT-4 3.94 µM | COLO 205 7.76 µM | RXF 393 5.04 µM | UACC-257 13.7 µM | HOP-62 17.7 µM | CCRF-CEM 2.2 µM | ACHN 11 µM | KM12 12.1 µM | SN12C 4.74 µM

CCOC(=O)/C(I)=C/c1cc(OC)c(OC)c(OC)c1
inactive: OVCAR-3 3.94 µM | NCI-H522 4.14 µM | A498 25.6 µM | UO-31 5.79 µM | NCI-H23 3.08 µM | SF-268 1.36 µM | UACC-62 4.5 µM | HL-60 3.67 µM | SF-539 9.08 µM | SK-MEL-5 7.83 µM | K562 3.86 µM | MOLT-4 7.01 µM | COLO 205 6.12 µM | UACC-257 10.8 µM | HOP-62 26.9 µM | CCRF-CEM 1.93 µM | ACHN 7.14 µM | KM12 6.4 µM | SN12C 4.62 µM

Nc1sccc1S(=O)(=O)c1ccsc1N
inactive: OVCAR-3 > 100 µM | NCI-H522 > 100 µM | A498 > 100 µM | UO-31 > 100 µM | NCI-H23 > 100 µM | SF-268 > 100 µM | UACC-62 > 100 µM | SF-539 > 100 µM | SK-MEL-5 > 100 µM | MOLT-4 > 100 µM | COLO 205 > 100 µM | UACC-257 > 100 µM | HOP-62 > 100 µM | ACHN > 100 µM | KM12 > 100 µM | SN12C > 100 µM

CCNCC(O)COc1ccc2c(c1)[n+]([O-])nc(N)[n+]2[O-] (stereo not drawn)
inactive: OVCAR-3 > 100 µM | NCI-H522 12.6 µM | A498 27.8 µM | UO-31 > 100 µM | NCI-H23 47.4 µM | SF-268 31.3 µM | UACC-62 18 µM | HL-60 43.1 µM | SF-539 37.3 µM | SK-MEL-5 24.8 µM | K562 35.2 µM | MOLT-4 14.5 µM | COLO 205 68.9 µM | UACC-257 > 100 µM | HOP-62 23.5 µM | CCRF-CEM 19 µM | ACHN 30.1 µM | KM12 59.3 µM | SN12C 45.4 µM

CC(=O)NNc1nc(C)c(C(=O)/C=C/C=C/c2ccccc2)s1
inactive: OVCAR-3 52.2 µM | NCI-H522 61.9 µM | A498 > 100 µM | UO-31 > 100 µM | NCI-H23 > 100 µM | SF-268 > 100 µM | UACC-62 > 100 µM | HL-60 44.4 µM | SF-539 > 100 µM | SK-MEL-5 > 100 µM | MOLT-4 56.1 µM | COLO 205 > 100 µM | UACC-257 66.7 µM | HOP-62 80.4 µM | CCRF-CEM 61.2 µM | ACHN > 100 µM | KM12 29.6 µM | SN12C > 100 µM

CC(C)CS(=O)(=O)/C(=C(\c1ccc(Br)cc1)S(=O)(=O)CC(C)C)c1ccc(Br)cc1
inactive: OVCAR-3 > 100 µM | NCI-H522 > 100 µM | A498 16.3 µM | UO-31 > 100 µM | NCI-H23 > 100 µM | SF-268 > 100 µM | UACC-62 > 100 µM | SF-539 > 100 µM | SK-MEL-5 1.41 µM | K562 > 100 µM | MOLT-4 > 100 µM | COLO 205 > 100 µM | RXF 393 90.2 µM | UACC-257 > 100 µM | HOP-62 > 100 µM | CCRF-CEM > 100 µM | ACHN > 100 µM | KM12 > 100 µM | SN12C > 100 µM
